The values below come from ChEMBL document CHEMBL4152193, “Phthalimide conjugations for the degradation of oncogenic PI3K” (Eur J Med Chem, 2018).

The target in assay [1] is Phosphatidylinositol 4,5-bisphosphate 3-kinase catalytic subunit alpha isoform (Homo sapiens, UniProt P42336). As to the kind of experiment: Inhibition of PI3Kalpha (unknown origin) using PIP2 as substrate after 1 hr by Kinase-Glo luminescent kinase assay.
Assay [2] deals with HepG2. Briefly: Cell cycle arrest in human HepG2 cells assessed as accumulation at G0/G1 phase at 25 uM after 24 hrs by flow cytometric analysis (reference value: 86.6%). Type of assay: functional.
In assay [3] the test system is HepG2. As to the kind of experiment: Induction of apoptosis in human HepG2 cells assessed as late apoptotic cells at 5 uM after 24 hrs by Annexin V-FITC/propidium iodide staining-based flow cytometric analysis (reference value: 7.34%). Type of assay: functional.
Assay [4] deals with HepG2. Briefly: Cell cycle arrest in human HepG2 cells assessed as accumulation at S phase at 10 uM after 24 hrs by flow cytometric analysis (reference value: 3.77%). Type of assay: functional.
The test system of assay [5] is HepG2. As to the kind of experiment: Cell cycle arrest in human HepG2 cells assessed as accumulation at G0/G1 phase at 10 uM after 24 hrs by flow cytometric analysis (reference value: 86.6%). It is filed as functional.
In assay [6] the test system is HepG2. As to the kind of experiment: Induction of apoptosis in human HepG2 cells assessed as late apoptotic cells at 25 uM after 24 hrs by Annexin V-FITC/propidium iodide staining-based flow cytometric analysis (reference value: 7.34%). It is filed as functional.
Assay [7] deals with HepG2. As to the kind of experiment: Induction of apoptosis in human HepG2 cells assessed as viable cells at 10 uM after 24 hrs by Annexin V-FITC/propidium iodide staining-based flow cytometric analysis (reference value: 90.1%). To be noted: HepG2, 24 h, read-out: Activity. It is filed as functional.
For assay [8], the target named is T1, Protein cereblon-pI3K (Homo sapiens) (UniProt P42338+P48736+P42336+O00329+Q96SW2). Briefly: Protac activity against PI3K/E3 ligase in human HepG2 cells assessed as reduction in phosphorylated GSK3beta protein level at 10 uM in human HepG2 cells by Western blot analysis. Type of assay: cell-based. To be noted: TDE = time-dependent effect.
Assay [9] deals with HepG2. As to the kind of experiment: Cell cycle arrest in human HepG2 cells assessed as accumulation at S phase at 5 uM after 24 hrs by flow cytometric analysis (reference value: 3.77%). Type of assay: functional.
Assay [10] concerns HepG2. Briefly: Cell cycle arrest in human HepG2 cells assessed as accumulation at G2/M phase at 10 uM after 24 hrs by flow cytometric analysis (reference value: 9.25%). It is filed as functional.
In assay [11] the test system is HepG2. Briefly: Cell cycle arrest in human HepG2 cells assessed as accumulation at G2/M phase at 5 uM after 24 hrs by flow cytometric analysis (reference value: 9.25%). It is filed as functional.
In assay [12] the test system is HepG2. As to the kind of experiment: Induction of apoptosis in human HepG2 cells assessed as necrotic cells at 5 uM after 24 hrs by Annexin V-FITC/propidium iodide staining-based flow cytometric analysis (reference value: 0.052%). It is filed as functional.
For assay [13], the system named is HepG2. Briefly: Induction of apoptosis in human HepG2 cells assessed as necrotic cells at 10 uM after 24 hrs by Annexin V-FITC/propidium iodide staining-based flow cytometric analysis (reference value: 0.052%). It is filed as functional.
The target of assay [14] is T1, Protein cereblon-pI3K (Homo sapiens). As to the kind of experiment: Protac activity against PI3K/E3 ligase in human HepG2 cells assessed as increase in conversion of LC3B-1 to LC3B-2 at 10 uM after 3 hrs in human HepG2 cells by Western blot analysis. Type of assay: cell-based.
For assay [15] the target is unchanged. Briefly: Protac activity against PI3K/E3 ligase in human HepG2 cells assessed as reduction in Akt phosphorylation at Ser-473 residue in human HepG2 cells after 24 hrs by Western blot analysis. It is filed as cell-based.
Assay [16] relates to HepG2. Briefly: Induction of apoptosis in human HepG2 cells assessed as necrotic cells at 25 uM after 24 hrs by Annexin V-FITC/propidium iodide staining-based flow cytometric analysis (reference value: 0.052%). Type of assay: functional.
Assay [17] relates to HepG2. As to the kind of experiment: Antiproliferative activity against human HepG2 cells assessed as inhibition of cell proliferation at 10 uM after 48 hrs by MTT assay. To be noted: HepG2, 48 h. It is filed as functional.
Assay [18] deals with HepG2. As to the kind of experiment: Induction of autophagy in GFP-LC3 transfected human HepG2 cells assessed as increase in LC3 puncta at 10 uM after 6 hrs by DAPI staining-based fluorescence microscopy. Type of assay: functional, cell-based.
Assay [19] deals with T1, Protein cereblon-pI3K (Homo sapiens). As to the kind of experiment: Protac activity against PI3K/E3 ligase in human HepG2 cells assessed as reduction in phosphorylated S6K protein level in human HepG2 cells after 24 hrs by Western blot analysis. It is filed as cell-based.
Assay [20] relates to HepG2. As to the kind of experiment: Induction of apoptosis in human HepG2 cells assessed as early apoptotic cells at 5 uM after 24 hrs by Annexin V-FITC/propidium iodide staining-based flow cytometric analysis (reference value: 2.46%). Type of assay: functional.
For assay [21], the system named is HepG2. As to the kind of experiment: Induction of apoptosis in human HepG2 cells assessed as viable cells at 5 uM after 24 hrs by Annexin V-FITC/propidium iodide staining-based flow cytometric analysis (reference value: 90.1%). It is filed as functional. The following applies: HepG2, 24 h, read-out: Activity.
Assay [22] concerns HepG2. As to the kind of experiment: Induction of apoptosis in human HepG2 cells assessed as late apoptotic cells at 10 uM after 24 hrs by Annexin V-FITC/propidium iodide staining-based flow cytometric analysis (reference value: 7.34%). Type of assay: functional.
Assay [23] relates to HepG2. Briefly: Cell cycle arrest in human HepG2 cells assessed as accumulation at G0/G1 phase at 5 uM after 24 hrs by flow cytometric analysis (reference value: 86.6%). It is filed as functional.
For assay [24], the system named is HepG2. Briefly: Induction of apoptosis in human HepG2 cells assessed as viable cells at 25 uM after 24 hrs by Annexin V-FITC/propidium iodide staining-based flow cytometric analysis (reference value: 90.1%). Type of assay: functional. To be noted: HepG2, 24 h, read-out: Activity.
For assay [25], the target named is T1, Protein cereblon-pI3K (Homo sapiens). As to the kind of experiment: Protac activity against PI3K/E3 ligase in human HepG2 cells assessed as reduction in cyclin D1 protein level at 10 uM in human HepG2 cells by Western blot analysis. It is filed as cell-based. To be noted: TDE = time-dependent effect.
Assay [26] deals with HepG2. Briefly: Antiproliferative activity against human HepG2 cells at 1 to 50 uM after 48 hrs by MTT assay. It is filed as functional, cell-based.
For assay [27], the system named is HepG2. Briefly: Induction of apoptosis in human HepG2 cells assessed as early apoptotic cells at 25 uM after 24 hrs by Annexin V-FITC/propidium iodide staining-based flow cytometric analysis (reference value: 2.46%). Type of assay: functional.
For assay [28], the system named is HepG2. As to the kind of experiment: Cell cycle arrest in human HepG2 cells assessed as accumulation at S phase at 25 uM after 24 hrs by flow cytometric analysis (reference value: 3.77%). Type of assay: functional.
The target in assay [29] is T1, Protein cereblon-pI3K (Homo sapiens). As to the kind of experiment: Protac activity against PI3K/E3 ligase in human HepG2 cells assessed as induction of p110alpha protein degradation at 10 uM in human HepG2 cells by Western blot analysis. Type of assay: cell-based.
Assay [30] concerns HepG2. Briefly: Cell cycle arrest in human HepG2 cells assessed as accumulation at G2/M phase at 25 uM after 24 hrs by flow cytometric analysis (reference value: 9.25%). Type of assay: functional.
Assay [31] deals with HepG2. Briefly: Induction of apoptosis in human HepG2 cells assessed as early apoptotic cells at 10 uM after 24 hrs by Annexin V-FITC/propidium iodide staining-based flow cytometric analysis (reference value: 2.46%). It is filed as functional.

SMILES strings stand for the structures. pIC50: −log10 of the molar value. Activity calls are given as the source filed them. No cut-off for these calls is given here.

Regarding `O=C1CCC(N2C(=O)c3cccc(NC(=O)CCCCCN4CCN(c5nc(N6CCOCC6)nc(-n6c(C(F)F)nc7ccccc76)n5)CC4)c3C2=O)C(=O)N1` (stereo unspecified), the negative-log IC50 (pIC50) in [1] is 5.55.

With `O=C(CCC(=O)N1CCN(c2nc(N3CCOCC3)nc(-n3c(C(F)F)nc4ccccc43)n2)CC1)NCCCCCC(=O)Nc1cccc2c1C(=O)N(C1CCC(=O)NC1=O)C2=O` (stereo unspecified), the Activity in the assay with HepG2 [2] was 81.3%; in the assay on HepG2 [3], 17.9%; in the assay with HepG2 [4], 3.49%; with HepG2 [5], 85.6%; in the assay with HepG2 [6], 20.4%; in assay [8], “Tde”. Further, the Activity in the assay on HepG2 [9] is 3.79%; in the assay on HepG2 [10], 10.5%; in the assay with HepG2 [11], 9.99%; in the assay with HepG2 [12] it was 0.152%; in the assay with HepG2 [13] it was 0.4%; in assay [15], “Dose-dependent effect”. Besides, the Activity in the assay with HepG2 [16] was 0.426%; in assay [19], “Dose-dependent effect”; in the assay with HepG2 [20] it was 10.3%; in the assay on HepG2 [22] it was 19.3%; with HepG2 [23], 85.6%; in [25], “Tde”. Further, the Activity entry in the assay with HepG2 [26] is “Dose-dependent effect”; in the assay on HepG2 [27], 10.3%; in the assay on HepG2 [28], 5.73%; in assay [29], < 50%; in the assay with HepG2 [30], 12.9%; in the assay with HepG2 [31], 14.7%. For the same compound, the viability at 10 µM in the assay with HepG2 [7] amounted to 65.6%. The result (in assay [14]; in the assay with HepG2 [18]) was Active. Also, the inhibition at 10 µM with HepG2 [17] is ≤ 50%. Moreover, the viability at 5 µM in the assay with HepG2 [21] was 71.7%. In addition, the viability at 25 µM with HepG2 [24] is 68.9%. In addition, the pIC50 in [1] was 7.62.

As to `O=C1CCC(N2C(=O)c3cccc(NC(=O)CCCCCn4cc(CN5CCN(c6nc(N7CCOCC7)nc(-n7c(C(F)F)nc8ccccc87)n6)CC5)nn4)c3C2=O)C(=O)N1` (stereo unspecified), the Activity entry in [8] is “Tde”; in assay [15] it was “Dose-dependent effect”; in [19], “Dose-dependent effect”; in assay [25], “Tde”; with HepG2 [26], “Dose-dependent effect”; in assay [29], < 50%. For the same compound, the outcome in assay [14] was Active. In addition, the inhibition at 10 µM in the assay with HepG2 [17] is ≤ 50%. In addition, the pIC50 in assay [1] was 7.07.

The compound `O=C(CCC(=O)NCCCC(=O)Nc1cccc2c1C(=O)N(C1CCC(=O)NC1=O)C2=O)NCCCCCC(=O)N1CCN(c2nc(N3CCOCC3)nc(-n3c(C(F)F)nc4ccccc43)n2)CC1` (stereo unspecified) showed a pIC50 in assay [1] of 7.42. Moreover, in the assay with HepG2 [26], the result was inactive.

Regarding `O=C1CCC(N2C(=O)c3cccc(NC(=O)CCCn4cc(CN5CCN(c6nc(N7CCOCC7)nc(-n7c(C(F)F)nc8ccccc87)n6)CC5)nn4)c3C2=O)C(=O)N1` (stereo unspecified), the Activity entry in assay [8] was “Tde”; in assay [15], “Dose-dependent effect”; in [19], “Dose-dependent effect”; in assay [25], “Tde”; in the assay on HepG2 [26], “Dose-dependent effect”; in assay [29] it was < 50%. For the same compound, in assay [14], the result was Active. In addition, in the assay with HepG2 [17], the inhibition at 10 µM was ≤ 50%. The same compound showed a pIC50 in assay [1] of 7.05.

On to `O=C(CCC(=O)N1CCN(c2nc(N3CCOCC3)nc(-n3c(C(F)F)nc4ccccc43)n2)CC1)NCCCC(=O)Nc1cccc2c1C(=O)N(C1CCC(=O)NC1=O)C2=O` (stereo unspecified), for which the Activity entry is “Tde” in assay [8]; “Dose-dependent effect” in assay [15]; “Dose-dependent effect” in assay [19]; “Tde” in assay [25]; “Dose-dependent effect” with HepG2 [26]; < 50% in assay [29]. In addition, the result in assay [14] was Active. Also, in the assay with HepG2 [17], the inhibition at 10 µM was ≤ 50%. For the same compound, the pIC50 in assay [1] was 7.74.
